Common to all, as to assay: NCI-60 cell line screen, 48 h
The test system of experiment [1] is OVCAR-4 ovarian.
In experiment [2] the test system is UACC-62 melanoma.
Experiment [3] relates to SF-295 CNS.
Experiment [4] relates to COLO 205 colon.
The subject of experiment [5] is U251 CNS.
Experiment [6] concerns CAKI-1 renal.
Experiment [7] relates to HCC-2998 colon.
Experiment [8] has as its system NCI-H522 lung.
Experiment [9] has as its system MDA-MB-435.

SMILES strings stand for the structures.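 Compound exposure: 48 hours, 5 concentrations, 96-well plates. GI50: concentration for 50% inhibition of growth. TGI denotes the concentration required for complete inhibition of growth.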

This note sets out measurements from PubChem BioAssay (NCI).

`C/C(CCc1ccccc1)=N\NC(N)=S`: the TGI in [1], in [2], in experiment [3], in [4], in [5] and in experiment [6] was more than 100 µM in each case. Moreover, the TGI in experiment [7] is more than 100 µM.
For `CCOC(=O)c1cc(/C=C/C(C)=C/C(=O)OC)oc1C`, the TGI in [1], in experiment [2], in experiment [8], in experiment [3], in experiment [4] and in [5] was more than 100 µM each time. Moreover, the TGI in experiment [6] was more than 100 µM.
For `COC(=O)c1ccccc1NC(=O)C(=O)NNC(=O)c1ccncc1`, the TGI in [1], in [2], in experiment [8], in [3], in [4] and in [6] was more than 100 µM each time. The same compound yielded a TGI in [7] of more than 100 µM.
Consider `C[C@]12CCCC(=O)C1(O)C[C@H](C(=O)O)CC2` (some centres undefined), for which the TGI in experiment [1], in [2], in [8], in experiment [3], in [4] and in experiment [5] was more than 100 µM in each case. In addition, the TGI in [6] and in [7] was more than 100 µM in each case.
As to `C=C1C(=O)O[C@H]2[C@H]1CC/C(COC(=O)c1cc3cc(Cl)ccc3[nH]1)=C\CC[C@@]1(C)O[C@@H]21`, the GI50 is 1.33 µM in experiment [1]; 1.67 µM in experiment [2]; 1.59 µM in experiment [8]; 3.18 µM in [3]; 1.72 µM in experiment [4]; 1.75 µM in experiment [5]. For the same compound, the GI50 in experiment [6] was 1.19 µM; in [7], 1.4 µM; in [9], 1.24 µM. For the same compound, the TGI was 2.72 µM in experiment [1]; 3.27 µM in experiment [2]; 3.92 µM in [8]; 16.5 µM in [3]; 3.7 µM in [4]; 3.32 µM in experiment [5]. For the same compound, the TGI came out at 2.42 µM in [6], 2.85 µM in experiment [7] and 2.51 µM in experiment [9].
`CCOC(=O)/C=C1\CCCC12OCCO2`: the TGI is more than 100 µM in experiment [1]; more than 100 µM in experiment [2]; 7.38 µM in experiment [8]; more than 100 µM in experiment [4]; more than 100 µM in experiment [5]; more than 100 µM in experiment [6]. The TGI in experiment [7] was more than 100 µM.
`CC[O-].CC[O-].O=S(=O)([O-])c1ccc([O-])c2ncccc12.O=S(=O)([O-])c1ccc([O-])c2ncccc12.[Ti+4]`: the GI50 in [1] was 52.9 µM; in experiment [2] it was 66.2 µM; in experiment [8], 32.8 µM; in experiment [3] it was more than 100 µM; in experiment [4], 83.2 µM; in experiment [6], more than 100 µM. Also, the GI50 in experiment [7] was 68.2 µM. Also, the TGI in experiment [1], in [2], in experiment [8], in [3], in [4] and in experiment [6] was more than 100 µM throughout. In experiment [7], this compound registered a TGI of more than 100 µM.
For the compound `COC1OC(CO)C(O)C1N` (centres undefined), the TGI in experiment [1], in experiment [2], in [8], in [3], in [4] and in [5] was more than 100 µM in each case. Also, the TGI in [6] is more than 100 µM.
As for `CCOP(=O)(OCC)OC(C#N)c1ccc(-c2ccccc2)cc1` (centres undefined), the TGI in experiment [1] is 36.6 µM; in experiment [2], 29.2 µM; in experiment [8] it was 28.5 µM; in experiment [3], more than 100 µM; in [4], 32.4 µM; in experiment [5], 28.9 µM. Further, the TGI in experiment [6] came out at 47.6 µM; in [7], 81.7 µM.
On to `Cc1ccccc1C1=C(C(=O)Nc2ccc(Cl)c(Cl)c2)NC(=S)NC1N` (centres undefined), for which the TGI in experiment [1], in experiment [2], in experiment [8], in experiment [4], in experiment [5] and in [6] was more than 100 µM throughout.
Turning to `CN(C)CC1CCC/C1=N\O` (centres undefined), the TGI in [1], in [2], in experiment [8], in experiment [3], in experiment [4] and in experiment [5] was more than 100 µM each time. For the same compound, the TGI in experiment [6] and in experiment [7] was more than 100 µM in each case.
For `Cc1ccc(-c2cc(-c3ccco3)c(C#N)c(=O)n2C2OC(OC(=O)c3ccccc3)C(OC(=O)c3ccccc3)C2OC(=O)c2ccccc2)cc1` (centres undefined), the TGI in experiment [2], in experiment [8], in experiment [3], in [6] and in [7] was more than 100 µM throughout.
Consider `C/C(=N\N(c1ccccc1)c1ccccc1)c1c(O)cc(C)oc1=O`, for which the TGI in experiment [1], in experiment [2], in experiment [8], in [3], in experiment [5] and in experiment [6] was more than 100 µM in each case. This compound gave a TGI in experiment [7] of more than 100 µM.
On to `COC(=O)C(CC(=O)Nc1ccc(C)cc1)C(=O)C(=O)Nc1ccccc1C(C)C` (centres undefined), for which the TGI in [1], in [2], in experiment [8], in experiment [3], in experiment [4] and in [5] was more than 100 µM in each case. The TGI in experiment [6] and in experiment [7] was more than 100 µM in each case.
`CC(=O)OCC(OC(C)=O)C(OC(C)=O)C(OC(C)=O)C(=O)CNn1c(-c2ccccc2Cl)nc2ccccc2c1=O` (centres undefined): the TGI in experiment [1], in [2], in experiment [8], in [3], in experiment [4] and in experiment [5] was more than 100 µM throughout. Further, the TGI in experiment [6] is more than 100 µM.
